According to article PMC9694544, “Conteltinib (CT-707) in patients with advanced ALK-positive non-small cell lung cancer: a multicenter, open-label, first-in-human phase 1 study” (BMC Medicine, 2022):

Test system: patients with ALK-positive NSCLC
Assay: Phase 1 safety assessment (TRAEs by CTCAE 4.03, DLT, MTD, RP2D)
Format: in vivo, human
Protocol: In the dose-escalation phase, the dose was escalated sequentially from a low to a high level with a 3 + 3 dose-escalation scheme based on the modified Fibonacci method. The starting dose for conteltinib was 50 mg orally quaque die (QD). Dose escalation proceeded to the next six cohorts of 100 mg, 200 mg, 300 mg, 450 mg, 600 mg, and 800 mg QD. For each dose, there was a PK lead-in phase where a single dose was given 7 days before cycle 1 day 1. Then, each dose was taken continuously in a 28-day cycle. The first cycle was for dose-limiting toxicity (DLT) investigation. When one of three patients experienced a DLT in a dose cohort, three additional patients were enrolled in the same dose cohort to assess the dose level in a total of six patients. All patients received conteltinib until disease progression, unacceptable toxicity, or withdrawal of consent. Patients received follow-up safety assessments for 30 days (±7 days) after the last conteltinib dose.
In the dose-expansion phase, each dose was taken continuously in a 28-day cycle. At the end of each cycle, a safety evaluation was conducted. If patients met the criteria to enter the next cycle, treatment with conteltinib was continued for subsequent cycles. All patients received conteltinib until disease progression, unacceptable toxicity, or withdrawal of consent. Patients received follow-up safety assessments for 30 days (±7 days) after the last dose of conteltinib.
The safety of conteltinib was assessed in safety set (SS) which was based on the National Cancer Institute Common Terminology Criteria for Adverse Events (CTCAE) version 4.03, laboratory tests, vital signs, ECG, and clinical observations. […] Adverse events (AEs) were judged to be treatment-related or not by investigators.
DLTs were AEs occurring in the first cycle of treatment (28 days) that were attributed to conteltinib, and the criteria were grade 4 neutropenia lasting ≥ 7 days, febrile neutropenia, grade 3 thrombocytopenia, grade 3 non-hematologic toxicity, and any conteltinib-related toxicity resulting in treatment delay > 2 weeks or discontinuation of conteltinib treatment at the assigned dose level. Besides, grade 3 nausea, vomiting, or diarrhea for ≥ 3 days or grade 4 nausea, vomiting, or diarrhea of any duration was considered as a DLT. The MTD was defined as the dose of conteltinib that would be closest to but not higher than a 33% probability of a DLT.

COc1cc(N2CCC(N3CCN(C)CC3)CC2)ccc1Nc1nc2c(c(Nc3ccccc3S(=O)(=O)NC(C)C)n1)CCN2 [Conteltinib]
TRAE Hypercholesterolemia (450 mg QD (n=14), Grade 1–2): 1 (7.1) n (%) | TRAE Hyperglycemia (450 mg QD (n=14), Grade 1–2): 1 (7.1) n (%) | TRAE Hypertriglyceridemia (450 mg QD (n=14), Grade 1–2): 2 (14.3) n (%) | TRAE Hyperuricemia (450 mg QD (n=14), Grade 1–2): 3 (21.4) n (%) | TRAE Hypoalbuminemia (450 mg QD (n=14), Grade 1–2): 2 (14.3) n (%) | TRAE Nausea (450 mg QD (n=14), Grade 1–2): 6 (42.9) n (%) | TRAE Proteinuria (450 mg QD (n=14), Grade 1–2): 1 (7.1) n (%) | TRAE Serum creatinine elevated (450 mg QD (n=14), Grade 1–2): 10 (71.4) n (%) | TRAE Vomiting (450 mg QD (n=14), Grade 1–2): 6 (42.9) n (%) | TRAE Weight loss (450 mg QD (n=14), Grade 1–2): 3 (21.4) n (%) | TRAE γ-GGT elevated (450 mg QD (n=14), Grade 1–2): 3 (21.4) n (%) | Patients with any TRAE (450 mg QD (n=14), Grade ≥ 3): 3 (21.4) n (%) | TRAE ALT elevated (450 mg QD (n=14), Grade ≥ 3): 0 (0.0) n (%) | TRAE AST elevated (450 mg QD (n=14), Grade ≥ 3): 0 (0.0) n (%) | TRAE Abdominal pain (450 mg QD (n=14), Grade ≥ 3): 0 (0.0) n (%) | TRAE Abdominal pain upper (450 mg QD (n=14), Grade ≥ 3): 0 (0.0) n (%) | TRAE Appetite decreased (450 mg QD (n=14), Grade ≥ 3): 0 (0.0) n (%) | TRAE Conjugated bilirubin elevated (450 mg QD (n=14), Grade ≥ 3): 0 (0.0) n (%) | TRAE Diarrhea (450 mg QD (n=14), Grade ≥ 3): 0 (0.0) n (%) | TRAE Hypercholesterolemia (450 mg QD (n=14), Grade ≥ 3): 0 (0.0) n (%) | TRAE Hyperglycemia (450 mg QD (n=14), Grade ≥ 3): 0 (0.0) n (%) | TRAE Hypertriglyceridemia (450 mg QD (n=14), Grade ≥ 3): 0 (0.0) n (%) | TRAE Hyperuricemia (450 mg QD (n=14), Grade ≥ 3): 0 (0.0) n (%) | TRAE Hypoalbuminemia (450 mg QD (n=14), Grade ≥ 3): 0 (0.0) n (%) | TRAE Nausea (450 mg QD (n=14), Grade ≥ 3): 0 (0.0) n (%) | TRAE Proteinuria (450 mg QD (n=14), Grade ≥ 3): 0 (0.0) n (%) | TRAE Serum creatinine elevated (450 mg QD (n=14), Grade ≥ 3): 0 (0.0) n (%) | TRAE Vomiting (450 mg QD (n=14), Grade ≥ 3): 0 (0.0) n (%) | TRAE Weight loss (450 mg QD (n=14), Grade ≥ 3): 0 (0.0) n (%) | TRAE γ-GGT elevated (450 mg QD (n=14), Grade ≥ 3): 3 (21.4) n (%) | Patients with any TRAE (600 mg QD (n=18), Grade 1–2): 18 (100) n (%) | TRAE ALT elevated (600 mg QD (n=18), Grade 1–2): 7 (38.9) n (%) | TRAE AST elevated (600 mg QD (n=18), Grade 1–2): 8 (44.4) n (%) | TRAE Abdominal pain (600 mg QD (n=18), Grade 1–2): 7 (38.9) n (%) | TRAE Abdominal pain upper (600 mg QD (n=18), Grade 1–2): 2 (11.1) n (%) | TRAE Appetite decreased (600 mg QD (n=18), Grade 1–2): 7 (38.9) n (%) | TRAE Conjugated bilirubin elevated (600 mg QD (n=18), Grade 1–2): 2 (11.1) n (%) | TRAE Diarrhea (600 mg QD (n=18), Grade 1–2): 16 (88.9) n (%) | TRAE Hypercholesterolemia (600 mg QD (n=18), Grade 1–2): 4 (22.2) n (%) | TRAE Hyperglycemia (600 mg QD (n=18), Grade 1–2): 6 (33.3) n (%) | TRAE Hypertriglyceridemia (600 mg QD (n=18), Grade 1–2): 8 (44.4) n (%) | TRAE Hyperuricemia (600 mg QD (n=18), Grade 1–2): 10 (55.6) n (%) | TRAE Hypoalbuminemia (600 mg QD (n=18), Grade 1–2): 3 (16.7) n (%) | TRAE Nausea (600 mg QD (n=18), Grade 1–2): 9 (50.0) n (%) | TRAE Proteinuria (600 mg QD (n=18), Grade 1–2): 8 (44.4) n (%) | TRAE Serum creatinine elevated (600 mg QD (n=18), Grade 1–2): 8 (44.4) n (%) | TRAE Vomiting (600 mg QD (n=18), Grade 1–2): 11 (61.1) n (%) | TRAE Weight loss (600 mg QD (n=18), Grade 1–2): 8 (44.4) n (%) | TRAE γ-GGT elevated (600 mg QD (n=18), Grade 1–2): 8 (44.4) n (%) | Patients with any TRAE (600 mg QD (n=18), Grade ≥ 3): 5 (27.8) n (%) | TRAE ALT elevated (600 mg QD (n=18), Grade ≥ 3): 0 (0.0) n (%) | TRAE AST elevated (600 mg QD (n=18), Grade ≥ 3): 0 (0.0) n (%) | TRAE Abdominal pain (600 mg QD (n=18), Grade ≥ 3): 0 (0.0) n (%) | TRAE Abdominal pain upper (600 mg QD (n=18), Grade ≥ 3): 0 (0.0) n (%) | TRAE Appetite decreased (600 mg QD (n=18), Grade ≥ 3): 0 (0.0) n (%) | TRAE Conjugated bilirubin elevated (600 mg QD (n=18), Grade ≥ 3): 0 (0.0) n (%) | TRAE Diarrhea (600 mg QD (n=18), Grade ≥ 3): 2 (11.1) n (%) | TRAE Hypercholesterolemia (600 mg QD (n=18), Grade ≥ 3): 0 (0.0) n (%) | TRAE Hyperglycemia (600 mg QD (n=18), Grade ≥ 3): 0 (0.0) n (%) | TRAE Hypertriglyceridemia (600 mg QD (n=18), Grade ≥ 3): 0 (0.0) n (%) | TRAE Hyperuricemia (600 mg QD (n=18), Grade ≥ 3): 0 (0.0) n (%) | TRAE Hypoalbuminemia (600 mg QD (n=18), Grade ≥ 3): 0 (0.0) n (%) | TRAE Nausea (600 mg QD (n=18), Grade ≥ 3): 0 (0.0) n (%) | TRAE Proteinuria (600 mg QD (n=18), Grade ≥ 3): 0 (0.0) n (%) | TRAE Serum creatinine elevated (600 mg QD (n=18), Grade ≥ 3): 1 (5.6) n (%) | TRAE Vomiting (600 mg QD (n=18), Grade ≥ 3): 0 (0.0) n (%) | TRAE Weight loss (600 mg QD (n=18), Grade ≥ 3): 0 (0.0) n (%) | TRAE γ-GGT elevated (600 mg QD (n=18), Grade ≥ 3): 1 (5.6) n (%) | DLT events (600 mg QD, cycle 1, dose-escalation phase, grade 3 serum creatinine elevated): One | Patients with any TRAE (800 mg QD (n=4), Grade 1–2): 3 (75.0) n (%) | TRAE ALT elevated (800 mg QD (n=4), Grade 1–2): 0 (0.0) n (%) | TRAE AST elevated (800 mg QD (n=4), Grade 1–2): 1 (25.0) n (%) | TRAE Abdominal pain (800 mg QD (n=4), Grade 1–2): 3 (75.0) n (%) | TRAE Abdominal pain upper (800 mg QD (n=4), Grade 1–2): 0 (0.0) n (%) | TRAE Appetite decreased (800 mg QD (n=4), Grade 1–2): 1 (25.0) n (%) | TRAE Conjugated bilirubin elevated (800 mg QD (n=4), Grade 1–2): 0 (0.0) n (%) | TRAE Diarrhea (800 mg QD (n=4), Grade 1–2): 3 (75.0) n (%) | TRAE Hypercholesterolemia (800 mg QD (n=4), Grade 1–2): 1 (25.0) n (%) | TRAE Hyperglycemia (800 mg QD (n=4), Grade 1–2): 1 (25.0) n (%) | TRAE Hypertriglyceridemia (800 mg QD (n=4), Grade 1–2): 2 (50.0) n (%) | TRAE Hyperuricemia (800 mg QD (n=4), Grade 1–2): 3 (75.0) n (%) | TRAE Hypoalbuminemia (800 mg QD (n=4), Grade 1–2): 1 (25.0) n (%) | TRAE Nausea (800 mg QD (n=4), Grade 1–2): 1 (25.0) n (%) | TRAE Proteinuria (800 mg QD (n=4), Grade 1–2): 2 (50.0) n (%) | TRAE Serum creatinine elevated (800 mg QD (n=4), Grade 1–2): 2 (50.0) n (%) | TRAE Vomiting (800 mg QD (n=4), Grade 1–2): 2 (50.0) n (%) | TRAE Weight loss (800 mg QD (n=4), Grade 1–2): 2 (50.0) n (%) | TRAE γ-GGT elevated (800 mg QD (n=4), Grade 1–2): 2 (50.0) n (%) | Patients with any TRAE (800 mg QD (n=4), Grade ≥ 3): 0 (0.0) n (%) | TRAE ALT elevated (800 mg QD (n=4), Grade ≥ 3): 0 (0.0) n (%) | TRAE AST elevated (800 mg QD (n=4), Grade ≥ 3): 0 (0.0) n (%) | TRAE Abdominal pain (800 mg QD (n=4), Grade ≥ 3): 0 (0.0) n (%) | TRAE Abdominal pain upper (800 mg QD (n=4), Grade ≥ 3): 0 (0.0) n (%) | TRAE Appetite decreased (800 mg QD (n=4), Grade ≥ 3): 0 (0.0) n (%) | TRAE Conjugated bilirubin elevated (800 mg QD (n=4), Grade ≥ 3): 0 (0.0) n (%) | TRAE Diarrhea (800 mg QD (n=4), Grade ≥ 3): 0 (0.0) n (%) | TRAE Hypercholesterolemia (800 mg QD (n=4), Grade ≥ 3): 0 (0.0) n (%) | TRAE Hyperglycemia (800 mg QD (n=4), Grade ≥ 3): 0 (0.0) n (%)
